In patent US8987195B2 (priority 2012, dated 2015):
Read-outs that look alike come from different tables or passages of the source.

Assays:
[1] = target: HCV NS3/4A protease genotype 3a (Hepatitis C virus genotype 3a, UniProt Q81495); assay: HCV NS3/4A protease time-resolved fluorescence (TRF) assay, Ki against genotype 3a; type: biochemical
Summary of the method: (§1)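 Enzyme was pre-incubated 30 min with inhibitor in HEPES pH 7.5 buffer (150 mM NaCl, 15% glycerol, 10 mM DTT). Reaction ran 2.5 h at room temperature with 25 nM europium TRF peptide substrate, read at ex 340/em 615 nm. Enzyme levels: 0.2 nM (1b), 0.4 nM (A156T), 0.025 nM (3a). Ki came from four-parameter IC50 via IC50=Ki(1+[S]/KM).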

[2] = target: HCV NS3/4A protease A156T mutant (Hepatitis C virus genotype 1b, UniProt P26663, A1182T); assay: HCV NS3/4A protease time-resolved fluorescence (TRF) assay, Ki against A156T mutant; type: biochemical; settings: read-out: IC50 [gt-1b A156T]
Summary of the method: as §1

HCV genotype 1b replicon = assay: HCV replicon assay, genotype 1b replicon EC50; type: cell-based, Hepatitis C virus; settings: Hepatitis C virus, read-out: EC50 [gt-1b]
Summary of the method: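 Potency comes from a four-parameter fit of signal as percent of DMSO control. Replicon-bearing cells were treated 24-48 hours with a compound dilution series in absence of G418, and replicon RNA was quantified normalized to cyclophilin A RNA, or luciferase read.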

[3] = target: HCV NS3/4A protease genotype 1b (Hepatitis C virus genotype 1b, UniProt P26663); assay: HCV NS3/4A protease time-resolved fluorescence (TRF) assay, Ki against genotype 1b; type: biochemical
Summary of the method: as §1

[4] = NS3/4A gt-1b A156T mutant, enzyme 0.4 nM
[5] = IC50 [gt-1b] (nM), NS3/4A genotype 1b, enzyme 0.2 nM
[6] = NS3/4A protease TRF assay, A156T mutant enzyme 0.4 nM
[7] = IC50 [gt-1b], NS3/4A protease TRF assay, genotype 1b enzyme 0.2 nM
[8] = NS3/4A protease TRF assay, A156T mutant enzyme 0.4 nM, K+ salt
[9] = HCV replicon, genotype 1b, K+ salt
[10] = IC50 [gt-1b], NS3/4A protease TRF assay, genotype 1b enzyme 0.2 nM, K+ salt

SMILES: COc1ccc2nc(C)c3c(c2c1)CC[C@]1(C[C@H]2C(=O)N[C@]4(C(=O)NS(=O)(=O)C5(C)CC5)C[C@H]4/C=C\CCCCC[C@H](NC(=O)OC4(C)COC4)C(=O)N2C1)O3 [Example 198, 3-methyloxetan-3-yl [(2R,6S,12Z,13aS,14aR,16aS)-9′-methoxy-5′-methyl-14a-{[(1-methylcyclopropyl)sulfonyl]carbamoyl}-5,16-dioxo-1,1′,2′,5,6,7,8,9,10,11,13a,14,14a,15,16,16a-hexadecahydrospiro[cyclopropa[e]pyrrolo[1,2-a][1,4]diazacyclopentadecine-2,3′-pyrano[2,3-c]quinolin]-6-yl]carbamate]
- IC50 [1]: 0.561 nM
- IC50 [2, 4]: 0.104 nM
- EC50 (HCV genotype 1b replicon; genotype 1b replicon): 9.19 nM
- IC50 [3, 5]: 0.006 nM

SMILES: CCc1nc2ccc(OC)cc2c2c1O[C@]1(CC2)C[C@H]2C(=O)N[C@]3(C(=O)NS(=O)(=O)C4(C)CC4)C[C@H]3/C=C\CCCCC[C@H](NC(=O)O[C@H](C)C3CC3)C(=O)N2C1 [Example 502, (1R)-1-cyclopropylethyl [(2R,6S,12Z,13aS,14aR,16aS)-5′-ethyl-9′-methoxy-14a-{[(1-methylcyclopropyl)sulfonyl]carbamoyl}-5,16-dioxo-1,1′,2′,5,6,7,8,9,10,11,13a,14,14a,15,16,16a-hexadecahydrospiro[cyclopropa[e]pyrrolo[1,2-a][1,4]diazacyclopentadecine-2,3′-pyrano[2,3-c]quinolin]-6-yl]carbamate]
- IC50 [1]: 0.48 nM
- IC50 [2, 6]: 0.121 nM
- EC50 (HCV genotype 1b replicon; HCV replicon, genotype 1b): 0.29 nM
- IC50 [3, 7]: 0.004 nM

SMILES: CC[C@H](C)OC(=O)N[C@H]1CCCCC/C=C\[C@@H]2C[C@@]2(C(=O)NS(=O)(=O)C2(C)CC2)NC(=O)[C@@H]2C[C@]3(CCc4c(c(C(F)(F)F)nc5ccc(OC)cc45)O3)CN2C1=O [Example 460, (2S)-butan-2-yl [(2R,6S,12Z,13aS,14aR,16aS)-9′-methoxy-14a-{[(1-methylcyclopropyl)sulfonyl]carbamoyl}-5,16-dioxo-5′-(trifluoromethyl)-1,1′,2′,5,6,7,8,9,10,11,13a,14,14a,15,16,16a-hexadecahydrospiro[cyclopropa[e]pyrrolo[1,2-a][1,4]diazacyclopentadecine-2,3′-pyrano[2,3-c]quinolin]-6-yl]carbamate]
- IC50 [1]: 1.78 nM
- IC50 [2, 8]: 2.74 nM
- EC50 (HCV genotype 1b replicon; [9]): 2.99 nM
- IC50 [3, 10]: 0.034 nM

SMILES: CCc1nc2ccc(OCCN3CCOCC3)cc2c2c1O[C@]1(CC2)C[C@H]2C(=O)N[C@]3(C(=O)NS(=O)(=O)C4(C)CC4)C[C@H]3/C=C\CCCCC[C@H](NC(=O)OCC(C)C)C(=O)N2C1 [Example 515, 2-methylpropyl {(2R,6S,12Z,13aS,14aR,16aS)-5′-ethyl-14a-{[(1-methylcyclopropyl)sulfonyl]carbamoyl}-9′-[2-(morpholin-4-yl)ethoxy]-5,16-dioxo-1,1′,2′,5,6,7,8,9,10,11,13a,14,14a,15,16,16a-hexadecahydrospiro[cyclopropa[e]pyrrolo[1,2-a][1,4]diazacyclopentadecine-2,3′-pyrano[2,3-c]quinolin]-6-yl}carbamate]
- IC50 [1]: 0.292 nM
- IC50 ([2]; NS3/4A protease TRF assay, A156T mutant enzyme 0.4 nM, HCl salt): 0.0575 nM
- EC50 (HCV genotype 1b replicon; HCV replicon, genotype 1b, HCl salt): 0.503 nM
- IC50 ([3]; IC50 [gt-1b], NS3/4A protease TRF assay, genotype 1b enzyme 0.2 nM, HCl salt): 0.005 nM

SMILES: COc1ccc2nc(C(F)(F)F)c3c(c2c1)[C@H](F)C[C@]1(C[C@H]2C(=O)N[C@]4(C(=O)NS(=O)(=O)C5(C)CC5)C[C@H]4/C=C\CCCCC[C@H](NC(=O)OCC(C)C)C(=O)N2C1)O3 [Example 461, 2-methylpropyl [(1′R,2S,6S,12Z,13aS,14aR,16aS)-1′-fluoro-9′-methoxy-14a-{[(1-methylcyclopropyl)sulfonyl]carbamoyl}-5,16-dioxo-5′-(trifluoromethyl)-1,1′,2′,5,6,7,8,9,10,11,13a,14,14a,15,16,16a-hexadecahydrospiro[cyclopropa[e]pyrrolo[1,2-a][1,4]diazacyclopentadecine-2,3′-pyrano[2,3-c]quinolin]-6-yl]carbamate]
- IC50 [1]: 0.624 nM
- IC50 [2, 6]: 0.435 nM
- EC50 (HCV genotype 1b replicon; HCV replicon, genotype 1b): 3.29 nM
- IC50 [3, 7]: 0.029 nM

SMILES: COc1ccc2nc(C(F)(F)F)c3c(c2c1)CC[C@]1(C[C@H]2C(=O)N[C@]4(C(=O)NS(=O)(=O)C5(C)CC5)C[C@H]4/C=C\CCCCC[C@H](NC(=O)OC4(C)CCC4)C(=O)N2C1)O3 [Example 451, 1-methylcyclobutyl [(2R,6S,12Z,13aS,14aR,16aS)-9′-methoxy-14a-{[(1-methylcyclopropyl)sulfonyl]carbamoyl}-5,16-dioxo-5′-(trifluoromethyl)-1,1′,2′,5,6,7,8,9,10,11,13a,14,14a,15,16,16a-hexadecahydrospiro[cyclopropa[e]pyrrolo[1,2-a][1,4]diazacyclopentadecine-2,3′-pyrano[2,3-c]quinolin]-6-yl]carbamate]
- IC50 [1]: 0.504 nM
- IC50 [2, 6]: 0.338 nM
- EC50 (HCV genotype 1b replicon; HCV replicon, genotype 1b): 1.86 nM
- IC50 [3, 7]: 0.006 nM

SMILES: CC(C)COC(=O)N[C@H]1CCCCC/C=C\[C@@H]2C[C@@]2(C(=O)NS(=O)(=O)C2(C)CC2)NC(=O)[C@@H]2C[C@]3(CCc4c(c(C(F)(F)F)nc5ccc(OCCCN6CCOCC6)cc45)O3)CN2C1=O [Example 511, 2-methylpropyl [(2R,6S,12Z,13aS,14aR,16aS)-14a-{[(1-methylcyclopropyl)sulfonyl]carbamoyl}-9′-[3-(morpholin-4-yl)propoxy]-5,16-dioxo-5′-(trifluoromethyl)-1,1′,2′,5,6,7,8,9,10,11,13a,14,14a,15,16,16a-hexadecahydrospiro[cyclopropa[e]pyrrolo[1,2-a][1,4]diazacyclopentadecine-2,3′-pyrano[2,3-c]quinolin]-6-yl]carbamate]
- IC50 [1]: 0.258 nM
- IC50 [2, 6]: 0.235 nM
- EC50 (HCV genotype 1b replicon; HCV replicon, genotype 1b): 0.782 nM
- IC50 [3, 7]: 0.008 nM

SMILES: CCc1nc2ccc(OC)cc2c2c1O[C@]1(CC2)C[C@H]2C(=O)N[C@]3(C(=O)NS(=O)(=O)C4(C)CC4)C[C@H]3/C=C\CCCCC[C@H](NC(=O)c3cn[nH]c3)C(=O)N2C1 [Example 482, (2R,6S,12Z,13aS,14aR,16aS)-5′-ethyl-9′-methoxy-N-[(1-methylcyclopropyl)sulfonyl]-5,16-dioxo-6-[(1H-pyrazol-4-ylcarbonyl)amino]-1,1′,2′,6,7,8,9,10,11,13a,14,15,16,16a-tetradecahydrospiro[cyclopropa[e]pyrrolo[1,2-a][1,4]diazacyclopentadecine-2,3′-pyrano[2,3-c]quinoline]-14a(5H)-carboxamide]
- IC50 [1]: 0.418 nM
- IC50 [2, 6]: 0.101 nM
- EC50 (HCV genotype 1b replicon; HCV replicon, genotype 1b): 68.6 nM
- IC50 [3, 7]: 0.008 nM

SMILES: CC(C)(C)OC(=O)N[C@H]1CCCCC/C=C\[C@@H]2C[C@@]2(C(=O)NS(=O)(=O)C2(C)CC2)NC(=O)[C@@H]2C[C@]3(CCc4c(c(C(F)(F)F)nc5ccc(OCCCN6CCOCC6)cc45)O3)CN2C1=O [Example 50, tert-Butyl ((2R,6S,13aS,14aR,16aS,Z)-14a-(((1-methylcyclopropyl)sulfonyl)carbamoyl)-9′-(3-morpholinopropoxy)-5,16-dioxo-5′-(trifluoromethyl)-1′,2′,3,5,6,7,8,9, 10,11,13a,14,14a,15,16,16a-hexadecahydro-1H-spiro[cyclopropa[e]pyrrolo[1,2-a][1,4]diazacyclopentadecine-2,3′-pyrano[2,3-c]quinolin]-6-yl)carbamate]
- IC50 [1]: 0.0965 nM
- IC50 [2, 4]: 0.0786 nM
- EC50 (HCV genotype 1b replicon; genotype 1b replicon): 0.284 nM
- IC50 [3, 5]: 0.01 nM

SMILES: CCc1nc2ccc(OCCCOC)cc2c2c1O[C@]1(CC2)C[C@H]2C(=O)N[C@]3(C(=O)NS(=O)(=O)C4(C)CC4)C[C@H]3/C=C\CCCCC[C@H](NC(=O)OCC(C)(C)C)C(=O)N2C1 [Example 488, 2,2-dimethylpropyl [(2R,6S,12Z,13aS,14aR,16aS)-5′-ethyl-9′-(3-methoxypropoxy)-14a-{[(1-methylcyclopropyl)sulfonyl]carbamoyl}-5,16-dioxo-1,1′,2′,5,6,7,8,9,10,11,13a,14,14a,15,16,16a-hexadecahydrospiro[cyclopropa[e]pyrrolo[1,2-a][1,4]diazacyclopentadecine-2,3′-pyrano[2,3-c]quinolin]-6-yl]carbamate]
- IC50 [1]: 0.486 nM
- IC50 [2, 8]: 0.136 nM
- EC50 (HCV genotype 1b replicon; [9]): 0.412 nM
- IC50 [3, 10]: 0.004 nM

SMILES: COc1ccc2nc(C(F)(F)F)c3c(c2c1)CC[C@]1(C[C@H]2C(=O)N[C@]4(C(=O)NS(=O)(=O)C5(C)CC5)C[C@H]4/C=C\CCCCC[C@H](NC(=O)OC4CCOC4)C(=O)N2C1)O3 (stereo partly drawn) [Example 481, tetrahydrofuran-3-yl [(2R,6S,12Z,13aS,14aR,16aS)-9′-methoxy-14a-{[(1-methylcyclopropyl)sulfonyl]carbamoyl}-5,16-dioxo-5′-(trifluoromethyl)-1,1′,2′,5,6,7,8,9,10,11,13a,14,14a,15,16,16a-hexadecahydrospiro[cyclopropa[e]pyrrolo[1,2-a][1,4]diazacyclopentadecine-2,3′-pyrano[2,3-c]quinolin]-6-yl]carbamate]
- IC50 [1]: 0.225 nM
- IC50 [2, 8]: 0.436 nM
- EC50 (HCV genotype 1b replicon; [9]): 1.31 nM
- IC50 [3, 10]: 0.006 nM
